Measured values taken from patent publication US20250144067A1, “PERSONALIZED STARVATION THERAPY FOR CANCER” (Faeth Therapeutics, Inc., priority 2021, published 2025).
Where a name gives a salt, the structure may show the parent alone. Read-outs that look alike come from different tables or passages of the source.

Legend:
[1] = system: NCI-H292 lung cancer cells; assay: FDA drug screening, complete media vs cholesterol-free media without statin (TABLE 1); assay type: cell-based, human
[2] = system: NCI-H292 lung cancer cells; assay: FDA drug screening, complete media vs cholesterol-free media with simvastatin (TABLE 2); assay type: cell-based, human
[3] = Complete minus Cholesterol-free, greater than 0 enhanced anti-cancer activity, about 0 neutral, below 0 antagonist
[4] = NCI-H292 cells, FDA drug library screen, cholesterol-free media without statin
[5] = NCI-H292 cells, FDA drug library screen, complete media
[6] = NCI-H292 cells, cholesterol-free media with simvastatin 0.04 μM, cell growth value in FDA drug screen
[7] = NCI-H292 cells, complete media, cell growth value in FDA drug screen
[8] = complete media minus cholesterol-free media + simvastatin, >0 enhanced anti-cancer activity, about 0 neutral, <0 antagonist
[9] = Complete minus Cholesterol-free, greater than 0 enhanced anti-cancer activity, about 0 neutral, below 0 antagonists
[10] = NCI-H292 cells in cholesterol-free media without statin
[11] = NCI-H292 cells in complete media
[12] = NCI-H292 cells, FDA drug library screen, cholesterol-free media with simvastatin 0.04 μM
[13] = Complete minus Cholesterol-free, >0 enhanced anti-cancer activity, about 0 neutral, <0 antagonist
[14] = NCI-H292 cells, cholesterol-free media without statin, FDA drug library screen
[15] = NCI-H292 cells, complete media, FDA drug library screen
[16] = NCI-H292 cells, drug in cholesterol-free media with simvastatin 0.04 μM
[17] = NCI-H292 cells, drug in complete media
[18] = complete media vs cholesterol-free media + simvastatin (0.04 μM), >0 enhanced anti-cancer activity, about 0 neutral, <0 antagonist
[19] = NCI-H292 cells, cholesterol-free media with simvastatin 0.04 μM, FDA drug library screen (TABLE 2)
[20] = NCI-H292 cells, complete media, FDA drug library screen (TABLE 2)
[21] = complete media minus cholesterol-free media + simvastatin (0.04 μM), >0 enhanced anti-cancer activity, about 0 neutral, <0 antagonist
[22] = Complete minus Cholesterol-free, […]
[23] = NCI-H292 cells, FDA library drug in cholesterol-free media with simvastatin 0.04 μM
[24] = NCI-H292 cells, FDA library drug in complete media
[25] = complete vs cholesterol-free media, >0 enhanced anti-cancer activity, about 0 neutral, <0 antagonist
[26] = NCI-H292 cells, cholesterol-free media without statin
[27] = complete vs cholesterol-free media, greater than 0 enhanced anti-cancer activity, about 0 neutral, below 0 antagonists
[28] = complete media vs cholesterol-free media + simvastatin (0.04 μM), […]

Molecule: Cc1nc(C(=O)NCC(=O)O)c(O)c2ccc(Oc3ccccc3)cc12 [Roxadustat]
- Difference [1, 3]: −0.11
- Cholesterol-free [1, 4]: 1.074
- Complete [1, 5]: 0.9662
- Cholesterol-free media + simvastatin (0.04 μM) [2, 6]: 1.201
- Complete Media [2, 7]: 1.327
- Difference [2, 8]: 0.13

Molecule: N#C/C(=C1/SC[C@@H](c2ccc(Cl)cc2Cl)S1)n1ccnc1 [Luliconazole]
- Difference [1, 9]: −0.58
- Cholesterol-free [1, 10]: 1.532
- Complete [1, 11]: 0.9562
- Cholesterol-free media + simvastatin (0.04 μM) [2, 12]: 0.3531
- Complete Media [2, 5]: 0.8464
- Difference [2, 8]: 0.49

Molecule: Ruxolitinib (phosphate)
- Difference [1, 13]: −0.04
- Cholesterol-free [1, 14]: 0.6764
- Complete [1, 15]: 0.6315
- Cholesterol-free media + simvastatin (0.04 μM) [2, 16]: 0.8715
- Complete Media [2, 17]: 0.6795
- Difference [2, 18]: −0.19

Molecule: Chlorpheniramine (maleate)
- Difference [1, 9]: −0.51
- Cholesterol-free [1, 10]: 1.451
- Complete [1, 11]: 0.9428
- Cholesterol-free media + simvastatin (0.04 μM) [2, 19]: 1.426
- Complete Media [2, 20]: 1.414
- Difference [2, 21]: −0.01

Molecule: Cn1ncnc1[C@H]1c2n[nH]c(=O)c3cc(F)cc(c23)N[C@@H]1c1ccc(F)cc1 [Talazoparib]
- Difference [1, 13]: −0.06
- Cholesterol-free [1, 14]: 0.2349
- Complete [1, 15]: 0.179
- Cholesterol-free media + simvastatin (0.04 μM) [2, 6]: 0.3041
- Complete Media [2, 7]: 0.3489
- Difference [2, 8]: 0.04

Molecule: OC[C@H]1O[C@@H](O[C@@H]2[C@@H](CO)OC(O)(CO)[C@H]2O)[C@H](O)[C@@H](O)[C@H]1O (mixture of isomers) [Lactulose]
- Difference [1, 3]: −0.16
- Cholesterol-free [1, 4]: 1.109
- Complete [1, 5]: 0.9456
- Cholesterol-free media + simvastatin (0.04 μM) [2, 6]: 0.7227
- Complete Media [2, 7]: 0.8015
- Difference [2, 8]: 0.08

Molecule: CC[C@@]1(O)C(=O)OCc2c1cc1n(c2=O)Cc2cc3ccccc3nc2-1 [Camptothecin]
- Difference [1, 22]: −0.01
- Cholesterol-free [1, 14]: 0.0145
- Complete [1, 15]: 0.005875
- Cholesterol-free media + simvastatin (0.04 μM) [2, 12]: −0.11
- Complete Media [2, 5]: 0.07415
- Difference ([2]; complete media minus cholesterol-free media + simvastatin, […]): 0.18

Molecule: CN(C)[C@@H]1C(O)=C(C(N)=O)C(=O)[C@@]2(O)C(O)=C3C(=O)c4c(O)ccc(Cl)c4[C@@H](O)[C@H]3C[C@@H]12 [Demeclocycline (hydrochloride)]
- Difference [1, 9]: −0.59
- Cholesterol-free [1, 10]: 1.527
- Complete [1, 11]: 0.9395
- Cholesterol-free media + simvastatin (0.04 μM) [2, 19]: 1.054
- Complete Media [2, 20]: 1.04
- Difference [2, 21]: −0.01

Molecule: CCOc1ccc(Cc2cc([C@@H]3O[C@H](CO)[C@@H](O)[C@H](O)[C@H]3O)ccc2Cl)cc1 [Dapagliflozin]
- Difference [1, 3]: −0.18
- Cholesterol-free [1, 4]: 1.052
- Complete [1, 5]: 0.875
- Cholesterol-free media + simvastatin (0.04 μM) [2, 23]: 1.024
- Complete Media [2, 24]: 0.6919
- Difference [2, 18]: −0.33

Molecule: CC(C(=O)O)c1ccc(-c2ccccc2)c(F)c1 (stereo not drawn) [Flurbiprofen]
- Cholesterol-free [1, 14]: 1.072
- Complete [1, 15]: 1.387
- Difference [1, 25]: 0.31
- Cholesterol-free media + simvastatin (0.04 μM) [2, 16]: 1.217
- Complete Media [2, 17]: 1.042
- Difference [2, 18]: −0.18

Molecule: CC(=O)Nc1c(I)c(NC(C)=O)c(I)c(C(=O)O)c1I [Diatrizoic acid]
- Difference [1, 3]: −0.07
- Cholesterol-free [1, 4]: 1.077
- Complete [1, 5]: 1.004
- Cholesterol-free media + simvastatin (0.04 μM) [2, 12]: 1.834
- Difference [2, 21]: −1.00

Molecule: Nc1ccc(O)c(C(=O)O)c1 [5-Aminosalicylic Acid]
- Cholesterol-free [1, 26]: 1.21
- Complete ([1]; NCI-H292 cells, complete media): 0.8775
- Difference [1, 27]: −0.33
- Cholesterol-free media + simvastatin (0.04 μM) [2, 16]: 1.224
- Complete Media [2, 17]: 1.016
- Difference [2, 18]: −0.21

Molecule: CC(=O)Nc1ccc(OC(=O)c2ccccc2OC(C)=O)cc1 [Benorilate]
- Cholesterol-free [1, 26]: 1.212
- Complete ([1]; NCI-H292 cells, complete media): 0.8832
- Difference [1, 27]: −0.33
- Cholesterol-free media + simvastatin (0.04 μM) [2, 12]: 1.253
- Complete Media [2, 5]: 1.11
- Difference [2, 18]: −0.14

Molecule: Prednisolone (hemisuccinate)
- Cholesterol-free [1]: 0.8784
- Complete [1]: 0.4751
- Difference [1]: −0.40
- Cholesterol-free media + simvastatin (0.04 μM) [2]: 0.7218
- Difference [2]: 0.06

Molecule: CC(C)(O/N=C(\C(=O)N[C@@H]1C(=O)N2C(C(=O)[O-])=C(C[n+]3ccccc3)CS[C@H]12)c1csc(N)n1)C(=O)O [Ceftazidime]
- Difference [1, 13]: −0.05
- Cholesterol-free [1, 14]: 0.9478
- Complete [1, 15]: 0.8943
- Cholesterol-free media + simvastatin (0.04 μM) [2, 16]: 1.391
- Difference [2, 18]: −0.24

Molecule: N#Cc1c(N2C[C@@H]3NCCO[C@H]3C2)c(F)cc2c(=O)c(C(=O)O)cn(C3CC3)c12 [Finafloxacin]
- Difference [1, 22]: −0.22
- Cholesterol-free [1, 26]: 1.006
- Complete ([1]; NCI-H292 cells, complete media): 0.7899
- Cholesterol-free media + simvastatin (0.04 μM) [2, 16]: 1.227
- Complete Media [2, 17]: 0.9973
- Difference [2, 28]: −0.23

Molecule: Cc1ncc(OC[C@@]2(c3cccc(F)c3)C[C@H]2C(=O)Nc2ccc(F)cn2)c(C)n1 [Lemborexant]
- Cholesterol-free [1, 26]: 1.55
- Complete ([1]; NCI-H292 cells, complete media): 1.207
- Difference ([1]; complete vs cholesterol-free media, […]): −0.34
- Cholesterol-free media + simvastatin (0.04 μM) [2, 12]: 1.185
- Complete Media [2, 5]: 1.038
- Difference [2, 28]: −0.15

Molecule: C#Cc1cccc(Nc2ncnc3cc(OCCOC)c(OCCOC)cc23)c1 [Erlotinib (Hydrochloride)]
- Cholesterol-free [1, 14]: 0.2078
- Complete [1, 15]: 0.4921
- Difference [1, 25]: 0.28
- Cholesterol-free media + simvastatin (0.04 μM) [2, 6]: 0.6388
- Complete Media [2, 7]: 0.67
- Difference [2, 8]: 0.03

Molecule: CCC(=O)O[C@H]1[C@H](O[C@@H]2[C@@H](C)[C@H](O[C@H]3C[C@@](C)(OC)[C@@H](O)[C@H](C)O3)[C@@H](C)C(=O)O[C@H](CC)[C@@](C)(O)[C@H](O)[C@@H](C)C(=O)[C@H](C)C[C@@]2(C)O)O[C@H](C)C[C@@H]1N(C)C [Erythromycin estolate]
- Cholesterol-free [1, 14]: 0.6279
- Complete [1, 15]: 1.129
- Difference [1, 25]: 0.50
- Cholesterol-free media + simvastatin (0.04 μM) [2, 23]: 1.347
- Complete Media [2, 24]: 1.076
- Difference [2, 18]: −0.27

Molecule: CCC1(C)CC(=O)NC1=O (stereo not drawn) [Ethosuximide]
- Difference [1, 13]: −0.24
- Cholesterol-free [1, 26]: 1.124
- Complete ([1]; NCI-H292 cells, complete media): 0.884
- Cholesterol-free media + simvastatin (0.04 μM) [2, 12]: 1.133
- Complete Media [2, 5]: 0.9952
- Difference [2, 18]: −0.14

Molecule: Benztropine (mesylate)
- Cholesterol-free [1]: 0.859
- Complete [1]: 0.7883
- Difference [1]: −0.07
- Cholesterol-free media + simvastatin (0.04 μM) [2]: 0.7872
- Complete Media [2]: 0.8586
- Difference [2]: 0.07

Molecule: O=c1ccn([C@@H]2O[C@H](CO)[C@@H](O)[C@H]2O)c(=O)[nH]1 [Uridine]
- Difference [1, 13]: −0.19
- Cholesterol-free [1, 26]: 1.404
- Complete ([1]; NCI-H292 cells, complete media): 1.215
- Cholesterol-free media + simvastatin (0.04 μM) [2, 23]: 1.294
- Complete Media [2, 24]: 1.006
- Difference [2, 18]: −0.29

Molecule: CC(C)(Oc1ccc(C2CC2(Cl)Cl)cc1)C(=O)O (stereo not drawn) [Ciprofibrate]
- Difference [1, 3]: −0.11
- Cholesterol-free [1, 4]: 1.09
- Complete [1, 5]: 0.9746
- Cholesterol-free media + simvastatin (0.04 μM) [2, 23]: 1.569
- Complete Media [2, 24]: 1.161
- Difference [2, 18]: −0.41
